test system: Tunicamycin induced ISR (ATF4 signal ratio between nucleus and cytoplasm) in wild-type HEK293 cells; experiment: HEK-ATF4 High Content Imaging assay; format: cell-based; conditions: Homo sapiens, prevention of Tunicamycin induced ISR, 6 h incubation, ATF4 immunofluorescence nucleus/cytoplasm ratio
Procedure: HEK-ATF4 High Content Imaging Assay
Example compounds were tested in the HEK-ATF4 High Content Imaging assay to assess their pharmacological potency to prevent Tunicamycin induced ISR. Wild-type HEK293 cells were plated in 384-well imaging assay plates at a density of 12,000 cells per well in growth medium (containing DMEM/F12, 10% FBS, 2 mM L-Glutamine, 100 U/mL Penicillin—100 μg/mL Streptomycin) and incubated at 37° C., 5% CO2. 24 h later, the medium was changed to 50 μL assay medium per well (DMEM/F12, 0.3% FBS, 2 mM L-Glutamine, 100 U/mL Penicillin—100 μg/mL Streptomycin). Example compounds were serially diluted in DMSO, spotted into intermediate plates and prediluted with assay medium containing 3.3 μM Tunicamycin to give an 11-fold excess of final assay concentration. In addition to the example compound testing area, the plates also contained multiples of control wells for assay normalization purposes, wells containing Tunicamycin but no example compounds (High control), as well as wells containing neither example compound nor Tunicamycin (Low control). The assay was started by transferring 5 μL from the intermediate plate into the assay plates, followed by incubation for 6 h at 37° C., 5% CO2. Subsequently, cells were fixed (4% PFA in PBS, 20 min at r.t.) and submitted to indirect ATF4 immunofluorescence staining (primary antibody rabbit anti ATF4, clone D4B8, Cell Signaling Technologies; secondary antibody Alexa Fluor 488 goat anti-rabbit IgG (H+L), Thermofisher Scientific). Nuclei were stained using Hoechst dye (Thermofisher Scientific), and plates were imaged on an Opera Phenix High Content imaging platform equipped with 405 nm and 488 nm excitation. Finally, images were analyzed using script based algorithms. The main readout HEK-ATF4 monitored the ATF4 signal ratio between nucleus and cytoplasm. Tunicamycin induced an increase in the overall ATF4 ratio signal, which was prevented by ISR modulating example compounds. In addition, HEK-CellCount readout was derived from counting the number of stained nuclei corresponding to healthy cells. This readout served as an internal toxicity control.

Row | Structure (SMILES) | IC50 [nM]
1 | O=C(N[C@H]1CC[C@H](c2nnc(OCCOC(F)(F)F)o2)NC1)c1ccc2nc(C(F)(F)F)ccc2c1 [Example 14, N-[(3S,6R)-6-{5-[2-(trifluoromethoxy)ethoxy]-1,3,4-oxadiazol-2-yl}piperidin-3-yl]-2-(trifluoromethyl)quinoline-6-carboxamide] | 2000 to 15000
2 | O=C(N[C@H]1CC[C@H](c2nnc(OCCOC(F)(F)F)o2)NC1)c1ncc2cc(Cl)ccc2n1 [Example 6, 6-chloro-N-[(3S,6R)-6-{5-[2-(trifluoromethoxy)ethoxy]-1,3,4-oxadiazol-2-yl}piperidin-3-yl]quinazoline-2-carboxamide] | 1 to 500
3 | O=C(N[C@H]1CC[C@H](c2nnc(OCCOC(F)(F)F)o2)NC1)c1cc2cc(Cl)ccc2o1 [Example 9, 5-chloro-N-[(3S,6R)-6-{5-[2-(trifluoromethoxy)ethoxy]-1,3,4-oxadiazol-2-yl}piperidin-3-yl]-1-benzofuran-2-carboxamide] | 1 to 500
4 | O=C(N[C@H]1CC[C@H](c2nnc(OCCOC(F)(F)F)o2)NC1)c1ccc(OC(F)(F)F)nc1 [Example 16, 6-(trifluoromethoxy)-N-[(3S,6R)-6-{5-[2-(trifluoromethoxy)ethoxy]-1,3,4-oxadiazol-2-yl}piperidin-3-yl]pyridine-3-carboxamide] | 500 to 2000
5 | O=C(N[C@H]1CC[C@H](c2nnc(OCCOC(F)(F)F)o2)NC1)c1cc(Cl)c(Cl)cn1 [Example 38, 4,5-dichloro-N-[(3S,6R)-6-{5-[2-(trifluoromethoxy)ethoxy]-1,3,4-oxadiazol-2-yl}piperidin-3-yl]pyridine-2-carboxamide] | 2000 to 15000
6 | O=C(N[C@H]1CC[C@H](c2nnc(OCCOC(F)(F)F)o2)NC1)c1ccc2cc(Cl)cnc2c1 [Example 10, 3-chloro-N-[(3S,6R)-6-{5-[2-(trifluoromethoxy)ethoxy]-1,3,4-oxadiazol-2-yl}piperidin-3-yl]quinoline-7-carboxamide] | 500 to 2000

— patent publication US20230391763A1, “MODULATORS OF THE INTEGRATED STRESS RESPONSE PATHWAY” (Evotec International GmbH, priority 2020, published 2023)
